Experimental data reported in ChEMBL document CHEMBL4765407, “Design, synthesis and high antitumor potential of new unsymmetrical bisacridine derivatives towards human solid tumors, specifically pancreatic cancers and their unique ability to stabilize DNA G-quadruplexes” (Eur J Med Chem, 2020).

How the values were obtained:
[1] = tested on: HCT-116; experiment: Cytotoxicity against human HCT-116 cells assessed as reduction in cell viability measured after 72 hrs by SRB assay; assay type: functional, cell-based; details: HCT-116, 72 h
[2] = tested on: W256; experiment: Antitumour activity against Walker 256 adenocarcinoma cells implanted in Wistar rat assessed as increase in animal survival rate by measuring T/C ratio at 5 mg/kg, ip qd for 3 days administered on day 3,4,5 after tumor cell transplantation; assay type: functional; details: time 3 day
[3] = tested on: HT-29; experiment: Cytotoxicity against human HT-29 cells assessed as reduction in cell viability measured after 72 hrs by SRB assay; assay type: functional, cell-based; details: HT-29, 72 h
[4] = tested on: DU-145; experiment: Cytotoxicity against human DU-145 cells assessed as reduction in cell viability measured after 72 hrs by SRB assay; assay type: functional, cell-based; details: DU-145, 72 h
[5] = tested on: NCI-H460; experiment: Cytotoxicity against human NCI-H460 cells assessed as reduction in cell viability measured after 72 hrs by SRB assay; assay type: functional, cell-based; details: NCI-H460, 72 h
[6] = tested on: PANC-1; experiment: Cytotoxicity against human PANC-1 cells assessed as reduction in cell viability measured after 72 hrs by SRB assay; assay type: functional, cell-based; details: PANC-1, 72 h
[7] = tested on: UMUC3; experiment: Cytotoxicity against human UMUC3 cells assessed as reduction in cell viability measured after 72 hrs by SRB assay; assay type: functional, cell-based; details: UMUC3, 72 h
[8] = tested on: HT-29; experiment: Antitumour activity against human HT-29 cells xenografted in Crl:Nu-Foxnl nu mouse assessed as inhibition of tumour growth at total effective dose of 24 mg/kg, iv measured on day 21; assay type: functional; details: HT-29, iv, 504 h, time 21 day, read-out: TGI
[9] = tested on: PC-3; experiment: Cytotoxicity against human PC-3 cells assessed as reduction in cell viability measured after 72 hrs by SRB assay; assay type: functional, cell-based; details: PC-3, 72 h
[10] = tested on: LNCaP; experiment: Cytotoxicity against human LNCaP cells assessed as reduction in cell viability measured after 72 hrs by SRB assay; assay type: functional, cell-based
[11] = tested on: Quadruplex DNA; experiment: Stabilization of 5'-FAM/3'-TAMRA labeled K-Ras G4 quadruplex DNA (unknown origin) assessed as change in melting temperature at 10 microM measured after 15 mins by FRET assay; assay type: nucleic-acid assay
[12] = Stabilization of ds 5'-FAM-d(TATAGCTATA-HEG-TATAGCTATA)-TAMRA-3' (unknown origin) assessed as change in melting temperature at 10 microM measured after 15 mins by FRET assay; details: Homo sapiens
[13] = tested on: Quadruplex DNA; experiment: Stabilization of 5'-FAM/3'-TAMRA labeled c-Myc promoter G4 quadruplex DNA FPu18 (unknown origin) assessed as change in melting temperature at 10 microM measured after 15 mins by FRET assay; assay type: nucleic-acid assay
[14] = tested on: MIA PaCa-2; experiment: Cytotoxicity against human MIA PaCa-2 cells assessed as reduction in cell viability measured after 72 hrs by SRB assay; assay type: functional, cell-based; details: MIA PaCa-2, 72 h
[15] = tested on: MDA-MB-231; experiment: Cytotoxicity against human MDA-MB-231 cells assessed as reduction in cell viability measured after 72 hrs by SRB assay; assay type: functional, cell-based; details: MDA-MB-231, 72 h
[16] = tested on: NCI-H460; experiment: Antitumour activity against human NCI-H460 cells xenografted in Crl:Nu-Foxnl nu mouse assessed as inhibition of tumour growth at total effective dose of 30 mg/kg, iv measured on day 14; assay type: functional; details: 336 h, time 14 day, read-out: TGI
[17] = tested on: Quadruplex DNA; experiment: Stabilization of 5'-FAM/3'-TAMRA labeled telomeric G4 quadruplex DNA F21T (unknown origin) assessed as change in melting temperature at 10 microM measured after 15 mins by FRET assay; assay type: nucleic-acid assay
[18] = tested on: MCF7; experiment: Cytotoxicity against human MCF7 cells assessed as reduction in cell viability measured after 72 hrs by SRB assay; assay type: functional, cell-based; details: MCF7, 72 h
[19] = tested on: W256; experiment: Antitumour activity against Walker 256 adenocarcinoma cells implanted in Wistar rat assessed as increase in animal survival rate by measuring T/C ratio at 4 mg/kg, ip qd for 3 days administered on day 3,4,5 after tumor cell transplantation; assay type: functional; details: time 3 day
[20] = tested on: ASPC1; experiment: Cytotoxicity against human ASPC1 cells assessed as reduction in cell viability measured after 72 hrs by SRB assay; assay type: functional, cell-based; details: ASPC1, 72 h
[21] = tested on: HT-29; experiment: Antitumour activity against human HT-29 cells xenografted in Crl:Nu-Foxnl nu mouse assessed as inhibition of tumour growth at total effective dose of 24 mg/kg, ip measured on day 21; assay type: functional; details: HT-29, ip, 504 h, time 21 day, read-out: TGI
[22] = tested on: W256; experiment: Antitumour activity against Walker 256 adenocarcinoma cells implanted in Wistar rat assessed as increase in animal survival rate by measuring T/C ratio at 10 mg/kg, ip qd for 3 days administered on day 3,4,5 after tumor cell transplantation; assay type: functional; details: time 3 day
[23] = tested on: W256; experiment: Antitumour activity against Walker 256 adenocarcinoma cells implanted in Wistar rat assessed as increase in animal survival rate by measuring T/C ratio at 40 mg/kg, ip qd for 3 days administered on day 3,4,5 after tumor cell transplantation; assay type: functional; details: time 3 day
[24] = tested on: W256; experiment: Antitumour activity against Walker 256 adenocarcinoma cells implanted in Wistar rat assessed as increase in animal survival rate by measuring T/C ratio at 1.25 mg/kg, ip qd for 3 days administered on day 3,4,5 after tumor cell transplantation; assay type: functional; details: time 3 day
[25] = tested on: HCT-116; experiment: Antitumour activity against human HCT-116 cells xenografted in Crl:Nu-Foxnl nu mouse assessed as inhibition of tumour growth at total effective dose of 5 mg/kg, ip measured on day 16; assay type: functional; details: HCT-116, ip, 384 h, time 16 day, read-out: TGI
[26] = tested on: MIA PaCa-2; experiment: Antitumour activity against human MIA PaCa-2 cells xenografted in Crl:Nu-Foxnl nu mouse assessed as inhibition of tumour growth at total effective dose of 32 mg/kg, iv measured on day 26; assay type: functional; details: MIA PaCa-2, iv, 624 h, time 26 day, read-out: TGI
[27] = tested on: W256; experiment: Antitumour activity against Walker 256 adenocarcinoma cells implanted in Wistar rat assessed as increase in animal survival rate by measuring T/C ratio at 1 mg/kg, ip qd for 3 days administered on day 3,4,5 after tumor cell transplantation; assay type: functional; details: time 3 day
[28] = tested on: DU-145; experiment: Antitumour activity against human DU-145 cells xenografted in Crl:Nu-Foxnl nu mouse assessed as inhibition of tumour growth at total effective dose of 24 mg/kg, ip measured on day 35; assay type: functional; details: DU-145, ip, 840 h, time 35 day, read-out: TGI
[29] = tested on: DU-145; experiment: Antitumour activity against human DU-145 cells xenografted in Crl:Nu-Foxnl nu mouse assessed as inhibition of tumour growth at total effective dose of 6 mg/kg, ip measured on day 35; assay type: functional; details: DU-145, ip, 840 h, time 35 day, read-out: TGI
[30] = tested on: W256; experiment: Antitumour activity against Walker 256 adenocarcinoma cells implanted in Wistar rat assessed as increase in animal survival rate by measuring T/C ratio at 20 mg/kg, ip qd for 3 days administered on day 3,4,5 after tumor cell transplantation; assay type: functional; details: time 3 day
[31] = tested on: UMUC3; experiment: Antitumour activity against human UMUC3 cells xenografted in Crl:Nu-Foxnl nu mouse assessed as inhibition of tumour growth at total effective dose of 14 mg/kg, iv measured on day 23; assay type: functional; details: 552 h, time 23 day, read-out: TGI
[32] = tested on: DU-145; experiment: Antitumour activity against human DU-145 cells xenografted in Crl:Nu-Foxnl nu mouse assessed as inhibition of tumour growth at total effective dose of 40 mg/kg, ip measured on day 35; assay type: functional; details: DU-145, ip, 840 h, time 35 day, read-out: TGI
[33] = tested on: PANC-1; experiment: Antitumour activity against human PANC-1 cells xenografted in Crl:Nu-Foxnl nu mouse assessed as inhibition of tumour growth at total effective dose of 16 mg/kg, iv measured on day 37; assay type: functional; details: PANC-1, iv, 888 h, time 37 day, read-out: TGI

Row | Compound | IC50 [1] [nM] | IC50 [3] [nM] | IC50 [4] [nM] | IC50 [5] [nM] | IC50 [6] [nM] | IC50 [10] [nM] | IC50 [14] [nM] | IC50 [15] [nM] | further results
1 | Cc1ccc([N+](=O)[O-])c2c(NCCNc3ccc(C)c4[nH]c5ccccc5c(=O)c34)c3ccccc3nc12 | 1270 | 1180 | 417 | 370 |  |  |  |  | T/C [2]: 750%
2 | Nc1ccn([C@@H]2O[C@H](CO)[C@@H](O)C2(F)F)c(=O)n1 [GEMCITABINE] |  |  |  |  | 22 |  |  |  | 
3 | O=c1c2cc(O)ccc2[nH]c2c([N+](=O)[O-])ccc(NCCCN3CCN(CCCNc4c5ccccc5nc5cccc([N+](=O)[O-])c45)CC3)c12 | 11 | 38 | 20 | 20 | 43 | 117 | 12 | 12 | IC50 [7]: 33 nM; inhibition in vivo at 24 mg/kg [8]: 39%; IC50 [9]: 31 nM; ΔTm [11]: 26.6 °C; ΔTm [12]: 3.3 °C; ΔTm [13]: 32.6 °C; inhibition in vivo at 30 mg/kg [16]: 24%; ΔTm [17]: 16 °C; IC50 [18]: 61 nM; T/C [19]: 300%; IC50 [20]: 210 nM; inhibition in vivo at 24 mg/kg [21]: 25%
4 | Cc1ccc([N+](=O)[O-])c2c(NCCCN(C)CCCNc3ccc(C)c4[nH]c5ccccc5c(=O)c34)c3ccccc3nc12 | 120 | 123 | 190 | 71 |  | 197 |  |  | T/C [2]: 1300%
5 | Cc1ccc([N+](=O)[O-])c2c(NCCCNCCCNc3ccc([N+](=O)[O-])c4[nH]c5ccc(O)cc5c(=O)c34)c3ccccc3nc12 | 88 | 129 | 78 | 73 |  | 123 |  |  | T/C [22]: 1500%
6 | Cc1ccc([N+](=O)[O-])c2c(NCCNCCNc3ccc(C)c4[nH]c5ccccc5c(=O)c34)c3ccccc3nc12 |  | 413 | 599 |  |  | 250 |  |  | T/C [23]: 250%
7 | NC(CCN1CCN(CCCNc2ccc3nnn4c5ccc(O)cc5c(=O)c2c34)CC1)c1ccc2nc3ccccc3cc2c1[N+](=O)[O-] (configuration not stated) |  |  | 17 |  | 36 |  | 17 | 29 | ΔTm [11]: 36.5 °C; ΔTm [12]: 5.9 °C; ΔTm [13]: 37.5 °C; ΔTm [17]: 27.5 °C; IC50 [20]: 137 nM
8 | O=c1c2ccccc2[nH]c2c([N+](=O)[O-])ccc(NCCCNCCNCCCNc3c4ccccc4nc4cccc([N+](=O)[O-])c34)c12 |  |  | 55 |  | 60 |  | 46 |  | T/C [24]: 250%
9 | CCc1c2c(nc3ccc(OC(=O)N4CCC(N5CCCCC5)CC4)cc13)-c1cc3c(c(=O)n1C2)COC(=O)[C@]3(O)CC [IRINOTECAN] | 9700 | 9500 |  |  |  |  |  |  | 
10 | Cc1ccc(NCCCNCCCNc2c3ccccc3nc3cccc([N+](=O)[O-])c23)c2c(=O)c3ccccc3[nH]c12 |  |  | 184 |  | 377 |  | 280 |  | T/C [24]: 300%; IC50 [18]: 228 nM
11 | CN(CCCNc1c2ccccc2nc2cccc([N+](=O)[O-])c12)CCCNc1ccc([N+](=O)[O-])c2[nH]c3ccc(O)cc3c(=O)c12 | 15 | 22 | 43 | 14 | 32 | 53 | 24 | 20 | inhibition in vivo at 5 mg/kg [25]: 32%; IC50 [7]: 14 nM; IC50 [9]: 52 nM; ΔTm [11]: 29.7 °C; inhibition in vivo at 32 mg/kg [26]: 30%; T/C [27]: 350%; ΔTm [13]: 26.3 °C; ΔTm [17]: 34 °C; IC50 [18]: 74 nM; inhibition in vivo at 24 mg/kg [28]: 52%; IC50 [20]: 135 nM; inhibition in vivo at 6 mg/kg [29]: 60%
12 | Cc1ccc([N+](=O)[O-])c2c(NCCCN3CCN(CCCNc4ccc([N+](=O)[O-])c5[nH]c6ccc(O)cc6c(=O)c45)CC3)c3ccccc3nc12 |  | 233 | 61 | 47 |  | 4030 |  |  | T/C [30]: 250%
13 | Cc1ccc(NCCNCCNc2c3ccccc3nc3cccc([N+](=O)[O-])c23)c2c(=O)c3ccccc3[nH]c12 |  | 138 | 243 |  | 212 | 250 |  | 137 | inhibition in vivo at 14 mg/kg [31]: 46%; inhibition in vivo at 40 mg/kg [32]: 61%; inhibition in vivo at 16 mg/kg [33]: 75%; ΔTm [11]: 28.1 °C; ΔTm [13]: 28.5 °C; ΔTm [17]: 37.7 °C; T/C [19]: 350%
14 | Cc1ccc([N+](=O)[O-])c2c(NCCCNCCNCCCNc3ccc([N+](=O)[O-])c4[nH]c5ccccc5c(=O)c34)c3ccccc3nc12 |  |  | 88 |  | 142 |  | 110 |  | T/C [2]: 350%
15 | Cc1ccc(NCCCN(C)CCCNc2c3ccccc3nc3cccc([N+](=O)[O-])c23)c2c(=O)c3ccccc3[nH]c12 |  | 49 | 25 |  | 40 |  |  | 39 | 
16 | Cc1ccc([N+](=O)[O-])c2c(NCCCN(C)CCCNc3ccc([N+](=O)[O-])c4[nH]c5ccc(O)cc5c(=O)c34)c3ccccc3nc12 |  | 200 | 73 | 46 |  | 377 |  |  | T/C [30]: 400%
